Reference: patent publication US12551523B2, “HIF-1 activator” (NUTRITION ACT CO., LTD., priority 2021, dated 2026)

What follows are molecules tested on K562 cells (assay: GYPA gene expression in K562 cells (quantitative real-time PCR)). Conditions: olive leaf components alone or in combination.
Format: cell-based, human
Method: K562 cells (Riken Cell Bank) were seeded in a 6-well plate using RPMI 1640 Medium (Gibco Waltham, MA, USA) containing 10% FBS and 1% penicillin/streptomycin solution added to a cell concentration of 2×10^4 cell/ml, and the cells were cultured in 5% CO2 at 37° C., 95% humidification. On the following day, the medium was replaced with a mixed solution of oleuropein (OP) and oleuroside (OS), and reaction was conducted for 6 days. The mixing proportions were as follows: (a) combinations of 35.36 μM OP and different concentrations of OS (1.18, 3.54, 5.23, 7.10, 17.68, 23.57, 35.36 and 43.85 μM), and (b) combinations of 5.23 μM OS and different concentrations of OP (0.52, 2.62, 5.23, 10.46, 20.92, 35.36, 41.84 and 52.30 μM). The medium was replaced every 3 days.
After 6 days of reaction, the medium was removed from the cells, Isogen (Nippon Gene Co., Ltd.) was added for sonication, and the total RNA was extracted according to the manufacturer's protocol. The RNA concentration was measured using a NanoDrop 2000 spectrometer (Thermo Scientific, USA). For cDNA synthesis, 4 μl of SuperScript IV VILO Master Mix (Invitrogen) and 16 μl of total RNA solution (final RNA concentration: 10 ng/20 μl) were mixed in a PCR tube, and a MiniAmp Plus thermal cycler (Applied Biosystems) was used for reverse transcription. The thermal cycle was 10 minutes at 25° C., 10 minutes at 50° C., 5 minutes at 85° C. and 1 minute at 4° C. Quantitative real-time PCR was carried out for gene expression analysis. The Taqman primer and probe set used for the target gene expression analysis was the following: GYPA (Hs011068079_s1). ACTB (Hs03023880 g1 was used as the endogenous standard. For Taqman real-time PCR amplification reaction and gene expression level quantitation, 10 μL of TaqMan Gene Expression Master Mix (Applied Biosystems), 1 μL of each primer and probe set and 9 μL of cDNA (final cDNA concentration: […]) were mixed, and an AB 7500 Fast Real-Time PCR system (Applied Biosystems) was used. The thermal cycle was 2 minutes at 50° C., 10 minutes at 95° C., 15 seconds at 95° C. (50 cycles) and 1 minute at 60° C. The gene expression levels were calculated by the ΔΔCt method.
Two types of olive leaf extract with different content ratios of oleuropein and oleuroside were used to treat K562 cells, and the GYPA gene expression levels were measured by real-time PCR, as an erythroid differentiation marker. The test substances used were olive leaf extract A: 120 μg/mL (1.89 μg oleuroside: 15.44 μg oleuropein) (“extract A”, corresponding to the invention), and olive leaf extract B: 120 μg/mL (1.56 μg oleuroside: 40.26 μg oleuropein) (“extract B”).
The hydroxytyrosol, oleuropein, oleuroside, apigenin, apigenin-7-glucoside, apigenin-7-O-rutinoside, luteolin and luteolin-7-O-glucoside present in olive leaves were used either alone or in combination to measure the GYPA gene expression effect by the same method as for the synergistic effect with OP/OS at 10:1 to 1:10 using GYPA as the marker. GYPA gene expression increased only with the combination of oleuroside and oleuropein.

Row | Compound | GYPA expression increase
1 | O=c1cc(-c2ccc(O)cc2)oc2cc(O[C@@H]3O[C@H](CO)[C@@H](O)[C@H](O)[C@H]3O)cc(O)c12 [A7G, Apigenin-7-O-glucoside] | No
2 | C[C@@H]1O[C@@H](OC[C@H]2O[C@@H](Oc3cc(O)c4c(=O)cc(-c5ccc(O)cc5)oc4c3)[C@H](O)[C@@H](O)[C@@H]2O)[C@H](O)[C@H](O)[C@H]1O [A7R, Apigenin-7-O-rutinoside] | No
3 | O=c1cc(-c2ccc(O)cc2)oc2cc(O)cc(O)c12 [A, Apigenin] | No
4 | O=c1cc(-c2ccc(O)c(O)c2)oc2cc(O[C@@H]3O[C@H](CO)[C@@H](O)[C@H](O)[C@H]3O)cc(O)c12 [L7G, Luteolin-7-O-glucoside] | No
5 | O=c1cc(-c2ccc(O)c(O)c2)oc2cc(O)cc(O)c12 [L, Luteolin] | No
6 | C/C=C1/[C@H](O[C@@H]2O[C@H](CO)[C@@H](O)[C@H](O)[C@H]2O)OC=C(C(=O)OC)[C@H]1CC(=O)OCCc1ccc(O)c(O)c1 [OP, Oleuropein] | No

Same assay, conditions: olive leaf components alone or in combination, listed as oleuropein

Row | Compound | GYPA expression increase
7 | C/C=C1/[C@H](O[C@@H]2O[C@H](CO)[C@@H](O)[C@H](O)[C@H]2O)OC=C(C(=O)OC)[C@H]1CC(=O)OCCc1ccc(O)c(O)c1 [OP, Oleuropein] | No effect
